{
  "source": "patent US9221800B2",
  "about": "“Isoxazole treatments for diabetes” (The Board of Regents of the University of Texas System, priority 2011, dated 2015)",
  "key": {"human islets [1]": {"tested_on": "human islets", "test": "Insulin secretion and insulin content (ELISA) of cultured human islets", "format": "cell-based", "experimental": "(§1) FIGS. 1A-E. Isx (LSH-1) induces expression of insulin and transcription factors in primary cultured human islets. (FIG. 1A) Primary human islets that had been cultured in RPMI 160 for 6 months were treated with vehicle or 40 μM Isx for 1 or 2 d. Expression of human insulin and glucagon genes was assessed by Taqman quantitative RT-PCR. (FIG. 1B) Insulin secretion measured by ELISA over 24 h from islets treated with Isx or vehicle for 1 or 2 d. (FIG. 1C) Total insulin content of islets cultured for 3 mo and fresh islets, each treated for 48 h with Isx or DMSO. (FIG. 1D) Time course of pancreatic gene induction in islets cultured for 1 year treated with DMSO (8 days) or 40 μM Isx for 2, 4 or 8 days. (FIG. 1E) Immunohistochemical staining using antibodies against insulin, BETA2, Neurogenin3 (Ngn3) and MafA of islets cultured for 2 months and treated with Isx or vehicle for 48 h. Nuclei were stained with DAPI.\nFIGS. 5A-E. Gene expression induced by Isx (LSH-1) in human islet cultures. (FIG. 5A) Structure of the lead compound N-cyclopropyl-5-(thiophen-2-yl)isoxazole-3-carboxamide (Isx) used in this study. (FIG. 5B) Expression profiles of relevant islet factors by Sybr-Green qPCR analyses from human islets cultured for 1 year as in FIG. 1D. (FIG. 5C) Insulin immunohistochemical staining in human islets cultured for 2 months. Nuclei are stained with DAPI. (FIG. 5D) Immunoblotting of whole cell extracts from human islets cultured for six months treated with vehicle (DMSO) or Isx for 24 h. (FIG. 5E) Human islets cultured for 6 months were treated with DMSO (Veh) or Isx for 48 h. To implicate signaling pathways that are required for the isoxazole-driven increase in β cell function, measured as GSIS, the isoxazole-treated islets were also treated with vehicle (Veh), 10 μM U0126 (U), 10 μM Nifedipine-BAPTA (N-B), or 0.1 μM wortmannin (W) for the duration of the isoxazole treatment.\nMIN6 cells were cultured in DMEM (Gibco), containing 25 mM glucose, 10% fetal bovine serum, 10 mM Hepes pH 7.4, 10.2 mM L-glutamine, […] sodium pyruvate, 2.5 mM β-mercaptoethanol, 100 U/ml penicillin and 100 μg/ml streptomycin at 37° C. in 10% CO2. Human islets were obtained from the ICR Basic Science Islet Distribution and from the University of Alabama, Birmingham Islet Resource Facility and were cultured in RPMI 1640 with 11 mM glucose for up to 1 year. The medium was changed twice weekly and the islets were subcultured when they reached 90% confluence. For Isx treatments, cells were incubated in medium containing either Isx or the equivalent volume of DMSO vehicle (0.04%). […]"}, "human islets [2]": {"tested_on": "human islets", "test": "Immunohistochemical staining of cultured human islets", "format": "cell-based", "conditions": "islets in culture for 2 months, Isx for 2 days (FIG. 1E)", "experimental": "as §1"}, "MIN6 cells": {"tested_on": "MIN6 cells", "test": "Insulin secretion (GSIS) and insulin content in MIN6 cells", "format": "cell-based, mouse", "experimental": "MIN6 cells were cultured in DMEM (Gibco), containing 25 mM glucose, 10% fetal bovine serum, 10 mM Hepes pH 7.4, 10.2 mM L-glutamine, […] sodium pyruvate, 2.5 mM β-mercaptoethanol, 100 U/ml penicillin and 100 μg/ml streptomycin at 37° C. in 10% CO2. Human islets were obtained from the ICR Basic Science Islet Distribution and from the University of Alabama, Birmingham Islet Resource Facility and were cultured in RPMI 1640 with 11 mM glucose for up to 1 year. The medium was changed twice weekly and the islets were subcultured when they reached 90% confluence. For Isx treatments, cells were incubated in medium containing either Isx or the equivalent volume of DMSO vehicle (0.04%). To measure GSIS, cells were placed in Krebs-Ringer bicarbonate/Hepes containing 0.1% bovine serum albumin and 2 mM glucose for 2 h, and stimulated for 15 min with 20 mM glucose, a 1× amino-acid mixture (concentrations as in DMEM), or 50 nM Exendin-4. U0126 (10 μM), nifedipine (3 μM), BAPTA (10 μM), wortmanin (0.5 μM) or FK506 (0.1 μM) were added for 1-24 h as indicated."}, "[3]": {"tested_on": "rat insulin 1 promoter-luciferase reporter (pGL3-rIns -410, +1)", "test": "Insulin promoter luciferase reporter assay in HEK293 cells", "format": "cell-based", "experimental": "HEK 293 cells (0.15×10^6 cells) in triplicate were transfected with the pGL3-rIns reporter construct (0.1 μg/well) (Stratagene) and cotransfected with 0.5 μg/well of either empty vector (pcDNA3.1) or vectors encoding BETA2:myc, MafA:myc or PDX-1:myc using Lipofectamine 2000 (Invitrogen). After 24 h, cells were stimulated with 20 μM Isx or DMSO for another 24 h. Luciferase activity was measured using the dual luciferase reporter system (Promega) with Renilla Luciferase as an internal control."}, "insulin gene promoter": {"tested_on": "insulin gene promoter", "test": "ChIP analysis of association with the insulin promoter in MIN6 cells", "format": "cell-based, mouse", "experimental": "ChIP was as described (Lawrence et al., 2008) with the following modifications. Chromatin was cross-linked with 1% formaldehyde and sonicated with a Bioruptor 200 (Diagenode) in an ice cold water bath. Antibodies immobilized on protein A-Sepharose beads were used for immunoprecipitation. ChIP products were analyzed by real-time Q-PCR as previously described for real-time PCR analysis (Lawrence et al., 2008) using the following primers (5′-CAGACCTAGCACCAGGG-3′ (SEQ ID NO:1) and 5′-GGACTTTGCTGTTTGTCCC-3′ (SEQ ID NO:2)) to amplify the −157/−50 fragment of the mouse insulin promoter encompassing the C1 (MafA), E1 (BETA2) and A1 (PDX-1) binding sites. The results were expressed relative to input and presented as mean+/− SEM of at least two independent experiments in triplicate."}, "HDAC": {"tested_on": "HDAC", "test": "HDAC activity in nuclear extracts of treated MIN6 cells", "format": "cell-based, mouse", "conditions": "24 h treatment, TSA 2 μM positive control (FIG. 4B)", "experimental": "(§2) The histone acetyl transferase and deacetylase activities were measured in 50 μg of nuclear protein using the HAT and HDAC activity colorimetric assay kits from Biovision Biotechnology according to manufacturer's recommendations."}, "HAT": {"tested_on": "HAT", "test": "HAT activity in nuclear extracts of treated MIN6 cells", "format": "cell-based, mouse", "experimental": "as §2"}, "p300": {"target": "T1, p300 (Homo sapiens, UniProt Q09472)", "T1 construct": "expressed in transfected cells; host or cells: HEK293", "T1 sequence (Q09472 whole entry, species assumed)": "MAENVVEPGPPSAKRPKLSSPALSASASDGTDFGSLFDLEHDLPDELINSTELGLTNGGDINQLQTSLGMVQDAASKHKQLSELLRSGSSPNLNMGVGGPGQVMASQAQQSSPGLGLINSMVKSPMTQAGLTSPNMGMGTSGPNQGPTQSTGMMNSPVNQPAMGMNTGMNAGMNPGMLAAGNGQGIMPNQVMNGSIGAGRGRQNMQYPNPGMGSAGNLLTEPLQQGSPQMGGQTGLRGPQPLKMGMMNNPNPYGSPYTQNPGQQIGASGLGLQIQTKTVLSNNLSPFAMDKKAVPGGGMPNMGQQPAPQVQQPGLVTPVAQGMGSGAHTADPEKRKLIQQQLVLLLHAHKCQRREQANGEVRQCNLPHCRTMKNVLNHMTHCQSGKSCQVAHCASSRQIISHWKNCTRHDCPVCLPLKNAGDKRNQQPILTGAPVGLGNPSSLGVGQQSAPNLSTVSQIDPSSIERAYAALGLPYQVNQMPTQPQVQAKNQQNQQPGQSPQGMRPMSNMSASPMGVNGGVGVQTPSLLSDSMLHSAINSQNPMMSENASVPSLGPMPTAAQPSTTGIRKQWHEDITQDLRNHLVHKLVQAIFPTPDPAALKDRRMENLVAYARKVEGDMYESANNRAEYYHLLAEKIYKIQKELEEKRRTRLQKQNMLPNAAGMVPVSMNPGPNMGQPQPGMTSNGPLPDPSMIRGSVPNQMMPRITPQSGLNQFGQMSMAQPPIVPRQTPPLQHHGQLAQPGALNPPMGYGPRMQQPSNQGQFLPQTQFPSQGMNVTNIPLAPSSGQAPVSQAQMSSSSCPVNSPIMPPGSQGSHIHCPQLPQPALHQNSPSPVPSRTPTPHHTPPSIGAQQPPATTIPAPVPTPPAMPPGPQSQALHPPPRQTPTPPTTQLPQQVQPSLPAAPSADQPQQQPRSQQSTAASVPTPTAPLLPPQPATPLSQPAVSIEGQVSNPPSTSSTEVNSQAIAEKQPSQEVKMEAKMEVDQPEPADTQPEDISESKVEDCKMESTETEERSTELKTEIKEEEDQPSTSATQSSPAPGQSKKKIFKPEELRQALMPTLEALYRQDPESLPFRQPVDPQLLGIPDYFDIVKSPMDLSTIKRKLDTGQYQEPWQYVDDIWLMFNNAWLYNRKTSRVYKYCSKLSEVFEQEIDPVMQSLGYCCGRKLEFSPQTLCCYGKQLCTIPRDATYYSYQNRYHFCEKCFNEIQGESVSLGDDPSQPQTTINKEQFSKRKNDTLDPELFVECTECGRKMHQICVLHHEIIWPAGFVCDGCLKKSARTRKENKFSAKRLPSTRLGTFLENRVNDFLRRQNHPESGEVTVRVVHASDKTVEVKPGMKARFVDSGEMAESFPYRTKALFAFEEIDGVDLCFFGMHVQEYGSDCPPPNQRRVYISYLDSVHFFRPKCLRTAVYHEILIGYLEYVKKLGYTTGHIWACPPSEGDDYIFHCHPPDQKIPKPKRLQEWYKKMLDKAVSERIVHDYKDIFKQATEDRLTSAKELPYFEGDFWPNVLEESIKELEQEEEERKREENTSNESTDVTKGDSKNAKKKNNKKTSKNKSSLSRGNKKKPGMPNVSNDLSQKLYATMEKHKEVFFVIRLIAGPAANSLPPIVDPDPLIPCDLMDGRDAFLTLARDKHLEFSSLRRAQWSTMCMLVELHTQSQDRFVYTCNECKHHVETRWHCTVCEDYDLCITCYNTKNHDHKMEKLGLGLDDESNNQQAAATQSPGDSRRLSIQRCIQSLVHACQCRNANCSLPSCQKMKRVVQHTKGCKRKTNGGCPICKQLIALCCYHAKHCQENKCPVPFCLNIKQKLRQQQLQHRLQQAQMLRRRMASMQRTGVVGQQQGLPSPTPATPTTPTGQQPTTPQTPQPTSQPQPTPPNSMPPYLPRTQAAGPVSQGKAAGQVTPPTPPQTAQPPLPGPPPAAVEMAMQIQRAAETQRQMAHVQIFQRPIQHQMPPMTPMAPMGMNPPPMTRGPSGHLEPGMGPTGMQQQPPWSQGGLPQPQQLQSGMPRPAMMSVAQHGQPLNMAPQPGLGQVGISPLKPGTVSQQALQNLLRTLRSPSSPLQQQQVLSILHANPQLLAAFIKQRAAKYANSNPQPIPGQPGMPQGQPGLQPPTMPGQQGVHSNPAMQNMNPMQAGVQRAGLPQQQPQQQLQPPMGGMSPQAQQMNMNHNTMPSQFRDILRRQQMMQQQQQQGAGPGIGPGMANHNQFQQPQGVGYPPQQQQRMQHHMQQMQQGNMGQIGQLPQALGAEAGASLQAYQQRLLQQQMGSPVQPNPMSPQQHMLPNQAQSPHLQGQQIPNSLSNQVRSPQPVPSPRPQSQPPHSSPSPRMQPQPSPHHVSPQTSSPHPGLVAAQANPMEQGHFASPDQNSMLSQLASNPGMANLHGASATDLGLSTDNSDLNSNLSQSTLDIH", "test": "HAT activity of HATs expressed in 293 cells", "format": "cell-based", "conditions": "combination of ERK2 expression and Isx, 24 h (FIG. 8)", "procedure": "(§3) (FIG. 8A) Combined effect of Isx treatment for 24 h and WT ERK2 (W) or kinase dead K52R ERK2 (R) on the HAT activities of p300, and (FIG. 8B) other HATs, CBP, PCAF and GCN5-L2, transfected in HEK293 cells."}, "PCAF": {"target": "T2, PCAF (Homo sapiens, UniProt Q92831)", "T2 construct": "expressed in transfected cells; host or cells: HEK293", "T2 sequence (Q92831 whole entry, species assumed)": "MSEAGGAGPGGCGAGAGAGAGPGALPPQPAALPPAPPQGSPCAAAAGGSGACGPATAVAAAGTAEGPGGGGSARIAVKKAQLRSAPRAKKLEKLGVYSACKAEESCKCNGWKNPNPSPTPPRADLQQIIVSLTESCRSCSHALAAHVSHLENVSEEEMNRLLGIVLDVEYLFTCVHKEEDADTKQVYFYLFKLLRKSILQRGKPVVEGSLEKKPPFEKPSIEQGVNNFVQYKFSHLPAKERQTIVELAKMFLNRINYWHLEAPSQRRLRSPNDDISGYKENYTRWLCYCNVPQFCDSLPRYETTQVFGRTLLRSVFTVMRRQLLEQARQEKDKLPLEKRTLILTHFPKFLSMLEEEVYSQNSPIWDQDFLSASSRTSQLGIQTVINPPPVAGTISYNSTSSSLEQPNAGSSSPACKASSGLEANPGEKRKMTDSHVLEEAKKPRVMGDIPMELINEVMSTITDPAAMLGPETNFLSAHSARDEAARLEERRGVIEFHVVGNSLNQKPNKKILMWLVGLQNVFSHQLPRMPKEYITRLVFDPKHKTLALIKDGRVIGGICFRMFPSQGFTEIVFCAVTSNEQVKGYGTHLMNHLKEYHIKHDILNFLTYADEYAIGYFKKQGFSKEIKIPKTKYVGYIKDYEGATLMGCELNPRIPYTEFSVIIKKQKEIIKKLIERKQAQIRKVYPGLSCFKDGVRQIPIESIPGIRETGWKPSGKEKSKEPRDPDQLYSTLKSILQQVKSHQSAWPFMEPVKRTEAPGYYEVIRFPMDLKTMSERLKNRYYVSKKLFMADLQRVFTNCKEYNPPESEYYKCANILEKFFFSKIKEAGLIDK", "test": "HAT activity of HATs expressed in 293 cells", "format": "cell-based", "conditions": "combination of ERK2 expression and Isx, 24 h (FIG. 8)", "procedure": "as §3"}},
  "data": [
    {"smiles": "O=C(NC1CC1)c1cc(-c2cccs2)on1", "note": "[Isx, N-cyclopropyl-5-(thiophen-2-yl)isoxazole-3-carboxamide]", "values": [
      {"measurement": "increase of insulin content of fresh islets", "setting": "human islets [1]; 2-day exposure to Isx", "value": "~25", "unit": "%"},
      {"measurement": "Insulin content relative to the insulin content of islets isolated only 1 week earlier", "setting": "human islets [1]; 3 month-old islets treated with Isx (FIG. 1C)", "value": "~75", "unit": "%"},
      {"measurement": "Insulin content increase", "setting": "human islets [1]; 3 month-old islets, Isx 48 h (FIG. 1C)", "value": "~10", "unit": "fold"},
      {"measurement": "Insulin secreted over a 24-h period", "setting": "human islets [1]; human islets in culture for 6 months, Isx 1 or 2 d (FIG. 1B)", "value": "markedly increased"},
      {"measurement": "Ngn3, BETA2, and insulin immunostaining", "setting": "human islets [2]", "value": "obvious increase"},
      {"measurement": "insulin content", "setting": "MIN6 cells; Isx 24 or 48 h (FIG. 2D)", "value": "relatively small increase"},
      {"measurement": "Glucose-stimulated insulin secretion (GSIS) increase", "setting": "MIN6 cells; Isx pretreatment 48 h (FIG. 2C)", "value": "~4", "unit": "fold"},
      {"measurement": "increase of stimulation of insulin secretion by glucose, amino acids and exendin-4, individually and in combination", "setting": "MIN6 cells; Isx pretreatment 48 h (FIG. 2E)", "value": "2 to 5", "unit": "fold"},
      {"measurement": "increase of the activity of PDX-1 (insulin gene reporter) by Isx", "setting": "[3]; 20 μM Isx 24 h", "value": "two-fold or less"},
      {"measurement": "Insulin gene reporter activity increase by either BETA2 or MafA in the presence of Isx", "setting": "[3]; 20 μM Isx 24 h (FIG. 3A, FIG. 7)", "value": "≥ 4", "unit": "fold"},
      {"measurement": "Chromatin recruitment of p300 to the insulin promoter upon stimulation by glucose", "setting": "insulin gene promoter; Isx pretreatment 24 h", "value": "increased"},
      {"measurement": "chromatin binding of BETA2 and MafA to the insulin gene promoter", "setting": "insulin gene promoter; compared with glucose stimulation (FIGS. 3D-E)", "value": "Comparable or greater"},
      {"measurement": "HDAC activity in MIN6 cells", "setting": "HDAC", "value": "not affected"},
      {"measurement": "HAT activity increase", "setting": "HAT; nuclear extracts from Isx-treated MIN6 cells, 24 h (FIG. 4C)", "value": "~2", "unit": "fold"},
      {"measurement": "HAT activity in nuclear extracts of MIN6 cells expressing p300", "setting": "HAT; over and above that from expressed p300", "value": "increased"},
      {"measurement": "p300 HAT activity", "setting": "p300", "value": "increased"},
      {"measurement": "PCAF HAT activity", "setting": "PCAF", "value": "not"}
    ]}
  ]
}
